Results: PubChem BioAssay AID1963867 (Molecular Pharmacology Branch, DTP, NCI, 2024)
Several values for one entry are separate records, joined by “and”; a condition that tells them apart may be missing. Equal values may be shown once. Activity calls are given as the source filed them. Rule for the calls: active = viability on the fitted dose curve at most 10% of control; inactive = the rest.

Test system: KRAS-mutant PDC tumor spheroid with HUVEC/MSC, viability
Experiment: Anticancer human tumor 327498-153-R-J2-PDC patient-derived uterine carcinosarcoma cell line growth inhibition [KRAS2]
Conditions: for viability, T/C: stronger effect = lower value
In short: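 Combination screen of spheroid viability in tumor-cell co-cultures with endothelial (HUVEC) and mesenchymal stem cell stroma. Each agent was tested in half-log dilutions, topping at clinical Cmax or at 10 microM without a known Cmax.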

[1] = curve of first compound, second compound 0.1 µM
[2] = curve of first compound, second compound 0.316 µM
[3] = curve of first compound, second compound 1 µM
[4] = curve of first compound, second compound 3.16 µM
[5] = curve of first compound, second compound 10 µM
[6] = second compound 0.1 µM, first compound 0.01 µM
[7] = second compound 0.1 µM, first compound 0.0316 µM
[8] = second compound 0.1 µM, first compound 0.1 µM
[9] = second compound 0.1 µM, first compound 0.316 µM
[10] = second compound 0.1 µM, first compound 1 µM
[11] = second compound 0.1 µM, first compound 3.16 µM
[12] = second compound 0.316 µM, first compound 0.01 µM
[13] = second compound 0.316 µM, first compound 0.0316 µM
[14] = second compound 0.316 µM, first compound 0.1 µM
[15] = second compound 0.316 µM, first compound 0.316 µM
[16] = second compound 0.316 µM, first compound 1 µM
[17] = second compound 0.316 µM, first compound 3.16 µM
[18] = second compound 1 µM, first compound 0.01 µM
[19] = second compound 1 µM, first compound 0.0316 µM
[20] = second compound 1 µM, first compound 0.1 µM
[21] = second compound 1 µM, first compound 0.316 µM
[22] = second compound 1 µM, first compound 1 µM
[23] = second compound 1 µM, first compound 3.16 µM
[24] = second compound 3.16 µM, first compound 0.01 µM
[25] = second compound 3.16 µM, first compound 0.0316 µM
[26] = second compound 3.16 µM, first compound 0.1 µM
[27] = second compound 3.16 µM, first compound 0.316 µM
[28] = second compound 3.16 µM, first compound 1 µM
[29] = second compound 3.16 µM, first compound 3.16 µM
[30] = second compound 10 µM, first compound 0.01 µM
[31] = second compound 10 µM, first compound 0.0316 µM
[32] = second compound 10 µM, first compound 0.1 µM
[33] = second compound 10 µM, first compound 0.316 µM
[34] = second compound 10 µM, first compound 1 µM
[35] = second compound 10 µM, first compound 3.16 µM
[36] = curve of first compound, second compound 0.0316 µM
[37] = second compound 0.0316 µM, first compound 0.000316 µM
[38] = second compound 0.0316 µM, first compound 0.001 µM
[39] = second compound 0.0316 µM, first compound 0.00316 µM
[40] = second compound 0.0316 µM, first compound 0.01 µM
[41] = second compound 0.0316 µM, first compound 0.0316 µM
[42] = second compound 0.0316 µM, first compound 0.1 µM
[43] = second compound 0.1 µM, first compound 0.000316 µM
[44] = second compound 0.1 µM, first compound 0.001 µM
[45] = second compound 0.1 µM, first compound 0.00316 µM
[46] = second compound 0.316 µM, first compound 0.000316 µM
[47] = second compound 0.316 µM, first compound 0.001 µM
[48] = second compound 0.316 µM, first compound 0.00316 µM
[49] = second compound 1 µM, first compound 0.000316 µM
[50] = second compound 1 µM, first compound 0.001 µM
[51] = second compound 1 µM, first compound 0.00316 µM
[52] = second compound 3.16 µM, first compound 0.000316 µM
[53] = second compound 3.16 µM, first compound 0.001 µM
[54] = second compound 3.16 µM, first compound 0.00316 µM
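Throughout, for IC50: spheroids exposed to agents for seven days before reading.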
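Throughout, for viability, T/C: spheroids exposed to agents for seven days before reading; 100% = DMSO vehicle wells so lower means fewer viable cells.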

CC(=O)OC12COC1CC(O)C1(C)C(=O)C(O)C3=C(C)C(OC(=O)C(O)C(NC(=O)OC(C)(C)C)c4ccccc4)CC(O)(C(OC(=O)c4ccccc4)C21)C3(C)C (configuration not stated) + COc1cc2nc(C)nc(NC(C)c3cc(N)cc(C(F)(F)F)c3)c2cc1OC1CCOC1
< 10 nM: IC50 [1] | IC50 [2] | IC50 [3] | IC50 [4] | IC50 [5]
active: viability, T/C [6] 8.2% | viability, T/C [7] 6.47% | viability, T/C [8] 7.11% | viability, T/C [9] 7.15% | viability, T/C [10] 9.33% | viability, T/C [11] 13.3% | viability, T/C [12] 7.68% | viability, T/C [13] 5.72% | viability, T/C [14] 6.66% | viability, T/C [15] 6.34% | viability, T/C [16] 9.71% | viability, T/C [17] 13.2% | viability, T/C [18] 7.84% | viability, T/C [19] 5.99% | viability, T/C [20] 6.32% | viability, T/C [21] 6.76% | viability, T/C [22] 8.86% | viability, T/C [23] 11.6% | viability, T/C [25] 5.59% | viability, T/C [26] 6.6% | viability, T/C [27] 6.36% | viability, T/C [28] 9.6% | viability, T/C [29] 12.6% | viability, T/C [30] 6.87% | viability, T/C [31] 6.05% | viability, T/C [32] 7.37% | viability, T/C [33] 9.15% | viability, T/C [34] 13.1% | viability, T/C [35] 11.8%
inactive: viability, T/C [24] 10.3%

CC(C)n1nc(-c2ccc3oc(N)nc3c2)c2c(N)ncnc21 + C=CC(=O)N1CCN(c2nc(OCC3CCCN3C)nc3c2CCN(c2cccc4cccc(C)c24)C3)CC1CC#N
0.342 nM: IC50 [1]
< 0.316 nM: IC50 [3] | IC50 [4]
1.03 nM: IC50 [36]
active: viability, T/C [41] 8.35% | viability, T/C [42] 5.42% | viability, T/C [7] 8.1% | viability, T/C [8] 4.85% | viability, T/C [13] 9.55% | viability, T/C [14] 4.33% | viability, T/C [19] 4.83% | viability, T/C [20] 3.23% | viability, T/C [52] 0.28% | viability, T/C [53] 0.25% | viability, T/C [54] 0.22% | viability, T/C [24] 0.14% | viability, T/C [25] 0.14% | viability, T/C [26] 0.21%
0.586 nM: IC50 [2]
inactive: viability, T/C [37] 62.7% | viability, T/C [38] 49.2% | viability, T/C [39] 35.1% | viability, T/C [40] 17.8% | viability, T/C [43] 51.6% | viability, T/C [44] 35.8% | viability, T/C [45] 28.4% | viability, T/C [6] 17.2% | viability, T/C [46] 57.3% | viability, T/C [47] 43.7% | viability, T/C [48] 28.8% | viability, T/C [12] 15.8% | viability, T/C [49] 46.5% | viability, T/C [50] 33% | viability, T/C [51] 22.6% | viability, T/C [18] 13.2%

CCNC(=O)CC1N=C(c2ccc(Cl)cc2)c2cc(OC)ccc2-n2c(C)nnc21 (configuration not stated) + C=CC(=O)N1CCN(c2nc(=O)n(-c3c(C)ccnc3C(C)C)c3nc(-c4c(O)cccc4F)c(F)cc23)C(C)C1
253 nM: IC50 [1]
154 nM: IC50 [3]
< 31.6 nM: IC50 [5]
103 nM: IC50 [2]
inactive: viability, T/C [7] 58.2% | viability, T/C [8] 58.7% | viability, T/C [9] 45.8% | viability, T/C [10] 40.4% | viability, T/C [11] 29.7% | viability, T/C (second compound 0.1 µM, first compound 10 µM) 24.3% | viability, T/C [13] 55.6% | viability, T/C [14] 50.7% | viability, T/C [15] 45.7% | viability, T/C [16] 33.5% | viability, T/C [17] 28.6% | viability, T/C (second compound 0.316 µM, first compound 10 µM) 22.3% | viability, T/C [19] 60.4% | viability, T/C [20] 51.2% | viability, T/C [21] 51.1% | viability, T/C [22] 33.7% | viability, T/C [23] 26.2% | viability, T/C (second compound 1 µM, first compound 10 µM) 22.7% | viability, T/C [25] 55.4% | viability, T/C [26] 48.9% | viability, T/C [27] 46.3% | viability, T/C [28] 35.8% | viability, T/C [29] 26.5% | viability, T/C (second compound 3.16 µM, first compound 10 µM) 19.1% | viability, T/C [31] 41.6% | viability, T/C [32] 43.3% | viability, T/C [33] 33.2% | viability, T/C [34] 26.9% | viability, T/C [35] 23.5% | viability, T/C (second compound 10 µM, first compound 10 µM) 17.9%
117 nM: IC50 [4]

COc1cc2nc(C)nc(NC(C)c3cc(N)cc(C(F)(F)F)c3)c2cc1OC1CCOC1 (configuration not stated)
> 10000 nM and 8250 nM and 8160 nM: IC50 (compound alone, run of 07/19/2021)
inactive: outcome (compound 0.316 µM) | viability, T/C (compound 3.16 µM) 65.2% [middle of 17 runs]
> 10000 nM and 9500 nM: IC50 (compound alone, run of 07/12/2021)
> 10000 nM: IC50 (compound alone, run of 07/26/2021)

Cn1ncnc1[C@H]1c2n[nH]c(=O)c3cc(F)cc(c23)N[C@@H]1c1ccc(F)cc1 + C=CC(=O)N1CCN(c2nc(OCC3CCCN3C)nc3c2CCN(c2cccc4cccc(C)c24)C3)CC1CC#N
inactive: viability, T/C [37] 77.5% | viability, T/C [38] 69.2% | viability, T/C [39] 63.3% | viability, T/C [40] 45.2% | viability, T/C [41] 28.2% | viability, T/C [42] 16.9% | viability, T/C [43] 54.5% | viability, T/C [44] 57.5% | viability, T/C [45] 54.3% | viability, T/C [6] 35.2% | viability, T/C [7] 21.9% | viability, T/C [8] 14.6% | viability, T/C [46] 56.1% | viability, T/C [47] 48.5% | viability, T/C [48] 49.8% | viability, T/C [12] 32.8% | viability, T/C [13] 18.7% | viability, T/C [14] 13.7% | viability, T/C [49] 44% | viability, T/C [50] 53.7% | viability, T/C [51] 37.1% | viability, T/C [18] 25.4% | viability, T/C [19] 17.1% | viability, T/C [20] 12.3%
1.97 nM: IC50 [2]
7.27 nM: IC50 [36]
3.84 nM: IC50 [1]
< 0.316 nM: IC50 [3] | IC50 [4]
active: viability, T/C [52] 0.23% | viability, T/C [53] 0.18% | viability, T/C [54] 0.94% | viability, T/C [24] 0.16% | viability, T/C [25] 0.18% | viability, T/C [26] 0.22%

CC1COCCN1c1cc(-c2ccnn2C)c2ccnc(-c3ccn[nH]3)c2n1 (configuration not stated) + CC1OCC2(CCN(c3cnc(Sc4ccnc(N)c4Cl)c(N)n3)CC2)C1N
21 nM: IC50 [1]
inactive: viability, T/C [6] 70% | viability, T/C [7] 39% | viability, T/C [12] 37.1% | viability, T/C [13] 21.5% | viability, T/C [18] 31.1% | viability, T/C [19] 14.8% | viability, T/C [24] 23.2% | viability, T/C [25] 12.1% | viability, T/C [30] 19.6% | viability, T/C [31] 13.4%
< 10 nM: IC50 [2] | IC50 [3] | IC50 [4] | IC50 [5]
active: viability, T/C [8] 8.18% | viability, T/C [9] 6.79% | viability, T/C [10] 8.72% | viability, T/C [11] 6.58% | viability, T/C [14] 8.27% | viability, T/C [15] 5.01% | viability, T/C [16] 7.64% | viability, T/C [17] 4.81% | viability, T/C [20] 7.95% | viability, T/C [21] 4.88% | viability, T/C [22] 4.72% | viability, T/C [23] 4.24% | viability, T/C [26] 8.55% | viability, T/C [27] 5.44% | viability, T/C [28] 5.2% | viability, T/C [29] 3.81% | viability, T/C [32] 7.85% | viability, T/C [33] 6.38% | viability, T/C [34] 5.34% | viability, T/C [35] 3.63%

O=C(c1cc(Cc2n[nH]c(=O)c3ccccc23)ccc1F)N1CCN(C(=O)C2CC2)CC1
2.58 µM [middle of 5 runs]: IC50 (curve of compound)
inactive: viability, T/C (compound 0.0316 µM) 108% [middle of 5 runs] | viability, T/C (compound 0.1 µM) 99.3% [middle of 5 runs] | viability, T/C (compound 0.316 µM) 93% [middle of 5 runs] | viability, T/C (compound 1 µM) 81.6% [middle of 5 runs] | viability, T/C (compound 3.16 µM) 41.5% [middle of 5 runs] | viability, T/C (compound 10 µM) 18.4% [middle of 5 runs]
